{
  "source": "patent US10189858B2",
  "about": "“Deuterium-enriched isoindolinonyl-piperidinonyl conjugates and oxoquinazolin-3(4H)-yl-piperidinonyl conjugates and methods of treating medical disorders using same” (DeuteRx, LLC, priority 2015, dated 2019)",
  "assay": "Deuterium/hydrogen (D/H) exchange in deuterium-enriched dBET1 in PBS (HPLC/UV and LC/MS)",
  "assay_type": "physicochemical",
  "settings": "PBS pH 7.4, 25° C.",
  "experimental": "In order to evaluate the stability against racemization provided by deuterium enrichment at the racemizable chiral center of the glutarimide portion of dBET1, a sample of racemic, deuterium-enriched dBET1 from Example 1 (i.e., D-dBET1 from Example 1) was incubated in PBS (pH=7.4) at 25° C. in the presence of ethyl paraben as an internal standard. A 20 μL solution of racemic, deuterium-enriched dBET1 (D-dBET1), aliquoted from 21.6 mg dissolved in 1 mL DMSO, was added to 4 mL of PBS (pH=7.4). The reaction was performed in duplicate. Aliquots were taken out at preset times and quenched with methanol in the presence of acetic acid (250 μL aliquot quenched with 500 μL 5% (v/v) acetic acid in methanol). The samples were analyzed by HPLC/UV (10 μL injection) and LC/MS (1 μL injection) using a reverse-phase column.\nSince the reaction is performed in an achiral medium, the kinetics of D/H exchange will be independent of the chirality of the starting material. As a result, separation of the enantiomers of D-dBET1 prior to the stability study is not required.\nA change in the ratio is expected if D/H exchange is observed since, for example, a peak at M+2, where M is the mass of the mono-deuterated isotopomer of dBET1, would by D/H exchange disappear and give a corresponding peak at M+1. Similarly, M+3 would give M+2, etc.",
  "data": [
    {"smiles": "[2H]C1(N2C(=O)c3cccc(OCC(=O)NCCCCNC(=O)C[C@@H]4N=C(c5ccc(Cl)cc5)c5c(sc(C)c5C)-n5c(C)nnc54)c3C2=O)CCC(=O)NC1=O", "note": "(mixture of isomers) [D-dBET1]", "values": [
      {"measurement": "half-life at 0.107 mg/mL", "result": "> 24", "unit": "h"},
      {"measurement": "area of chromatography peak normalized to internal standard (UV analysis)", "setting": "ethyl paraben internal standard", "result": "decreased as a function of the incubation time"},
      {"measurement": "change of mass spectral isotopic distribution as a function of incubation time", "setting": "up to 24h, LC/MS", "result": "did not change significantly"}
    ]}
  ]
}
